# Results as given in paper PMC2119788 (The Journal of Cell Biology, 1993).
# Assays:
# A-1 fibroblasts = conditions: previous report; ref Roch et al., 1992; cited from earlier work
# A-1 cells = assay type: cell-based; conditions: included in the assay media at 100 ug/ml; data not shown
Substance,Activity on the A-1 cell growth assay (A-1 fibroblasts),Inhibition of the growth-promoting effect of 17-mer or KB75 (A-1 cells)
TPDAVDKYLETPGDENEHAHFQKAKERLEAKHRERMSQVM [40-mer],active,–
heparan sulfate,–,failed to inhibit
heparin,–,failed to inhibit
